According to patent US20080090756A1, “Somatostatin agonists” (The Administrators of the Tulane Educational Fund, priority 2001, published 2008):
Bridge positions count the residues as written; N and C are the ends. Square brackets hold non-standard residues; d marks the D form. Peptide text beside a SMILES is read from it. NMeT = CN[C@H](C(=O)O)[C@@H](C)O

Assays:
[1] = target: T1, hSSTR-4 (Homo sapiens, UniProt P31391); assay: Radioligand binding assay, cloned human somatostatin receptor type 4; details: CHO-K1 cell membranes, displacement of [125I]Tyr11-SRIF; mean ± SEM, single values = one experiment; read-out: Kd ± SEM hsst4
T1 construct: each containing the entire coding region of the full-length receptors; expressed in transfected cells
Text: (§1) Functional Expression of the Cloned Human Somatostatin Receptors. The genomic clones containing the human somatostatin receptors (hSSTR-1 to hSSTR-5) (Yamada, Y., et al. al., Proc. Natl. Acad. Sci. USA. 1992, 89, 251-255; Yasuda, K., et al., J. Biol. Chem. 1992, 267, 20422-20428; Yamada, Y., et al., Mol. Pharmacol. 1992, 42, 2136-2142; Rohrer, L., et al., Proc. Natl. Acad. Sci. USA. 1993, 90, 4196-4200.) were kindly provided by Dr. Graeme I. Bell of the University of Chicago. The hSSTR-1, hSSTR-2, hSSTR-3, hSSTR-4 and hSSTR-5 cDNAs were isolated as a 1.5-kb PstI-XmnI fragment, 1.7-kb BamHI-HindIII fragment, 2.0-kb NcoI-HindIII fragment, 1.4-kb NheI-NdeI fragment, and a 1.2-kb HindIII-XbaI fragment, respectively, each containing the entire coding region of the full-length receptors. These fragments were independently subcloned into the corresponding restriction endonuclease sites in the mammalian expression vector pCMV5, downstream from the human cytomegalovirus (CMV) promoter, to produce the expression plasmids pCMV5/hSSTR-1, pCMV5/hSSTR-2, pCMV5/hSSTR-3, pCMV5/hSSTR-4 and pCMV5/hSSTR-5. For transfection into CHO-K1 cells, a plasmid, pRSV-neo (American Type Culture Collection, Rockville, Md.), carrying the neomycin mammalian cell selectable marker was added.
(§2) Receptor Expression and Transfection. Transfections were performed by the calcium phosphate method. CHO-K1 cells were maintained in α-minimum essential medium (α-MEM; Gibco) supplemented with 10% fetal calf serum and transfected with each of the expression plasmids using calcium phosphate precipitation. Clones that had inherited the expression plasmid were selected in α-MEM supplemented with 500 μg mL^−1 of geneticin (G418; Gibco). Independent CHO-K1 clones were picked by glass-ring cloning and expanded in culture in the selective media. Membranes were prepared from the isolated clones and hSSTR expression was initially assessed for binding with [^125I]Tyr^11-SRIF and [^125I]MK-678 (for SSTR-2).
(§3) Radioligand Binding Assays. Cell membranes of the 5 cells types were obtained from homogenates (Polytron setting 6, 15 sec) of the corresponding CHO-K1 cells, in ice-cold Tris-HCl (50 mM) and centrifuged (39000 g, 10 min×2), with an intermediate resuspension in fresh buffer. The final pellets were resuspended in Tris-HCl (10 mM) for assay. Aliquots of the membranes were incubated (30 min at 37° C.) with 0.05 nM [^125I]Tyr^11-SRIF (types 1, 3, 4, 5) or [^125I]MK-678 (type 2) in […] (pH 7.4) containing BSA (10 mg mL^−1); MgCl2 (5 mM), Trasylol (200 kIU mL^−1), bacitracin (0.02 mg mL^−1), and phenylmethanesulfonyl fluoride (0.02 mg mL^−1). The final assay volume was 0.3 mL and incubations were terminated by rapid filtration through GF/C filters pre-soaked in 0.3% poly(ethylenimine) using a Brandel rapid filtration module. Each tube and filter was then washed with aliquots of cold buffer (3×5 mL).
(§4) Specific binding is defined as the total radioligand bound minus that bound in the presence of 1.0 μM SRIF. The following total radioligand binding and non-specific binding (nsb) values were typically obtained with these assay systems: hSSTR-1, 7000 cpm total versus 3500 cpm nsb; hSSTR-2, 9000 cpm total versus 1000 cpm nsb; hSSTR-3, 8000 cpm total versus 1000 cpm nsb; hSSTR-4, 6000 cpm total versus 3500 cpm nsb; and hSSTR-5, 7500 cpm total versus 3500 cpm nsb. The binding affinities are expressed as Ki values ±SEM (nM) for each of the five receptor subtypes. Ki values derived for representative compounds of the instant invention are detailed in Table 2.
(§5) The binding affinities (Kd, nM) of all SRIF analogues were determined using their concentration-dependent displacement of ^125I-radiolabeled peptide ligands from membranes isolated from CHO cells transfected with the corresponding human somatostatin receptor.

[2] = target: T2, hSSTR-3 (Homo sapiens, UniProt P32745); assay: Radioligand binding assay, cloned human somatostatin receptor type 3; details: CHO-K1 cell membranes, displacement of [125I]Tyr11-SRIF; mean ± SEM, single values = one experiment; read-out: Kd ± SEM hsst3
T2 construct: each containing the entire coding region of the full-length receptors; expressed in transfected cells
Text: as §1, §2, §3, §4, §5

[3] = target: T3, hSSTR-2 (Homo sapiens, UniProt P30874); assay: Radioligand binding assay, cloned human somatostatin receptor type 2; details: CHO-K1 cell membranes, displacement of [125I]MK-678; mean ± SEM, single values = one experiment; read-out: Kd ± SEM hsst2
T3 construct: each containing the entire coding region of the full-length receptors; expressed in transfected cells
Text: as §1, §2, §3, §4, §5

[4] = target: T4, hSSTR-5 (Homo sapiens, UniProt P35346); assay: Radioligand binding assay, cloned human somatostatin receptor type 5; details: CHO-K1 cell membranes, displacement of [125I]Tyr11-SRIF; mean ± SEM, single values = one experiment; read-out: Kd ± SEM hsst5
T4 construct: each containing the entire coding region of the full-length receptors; expressed in transfected cells
Text: as §1, §2, §3, §4, §5

[5] = target: T5, hSSTR-1 (Homo sapiens, UniProt P30872); assay: Radioligand binding assay, cloned human somatostatin receptor type 1; details: CHO-K1 cell membranes, displacement of [125I]Tyr11-SRIF; mean ± SEM, single values = one experiment; read-out: Kd ± SEM hsst1
T5 construct: each containing the entire coding region of the full-length receptors; expressed in transfected cells
Text: as §1, §2, §3, §4, §5

[6] = test system: Culture Rat Pituitary Cells; type: cell-based; details: inhibition of GH release, dispersed rat anterior pituitary cells, GHRH(1-29)NH2 1 nM, 3 h at 37° C.; mean ± SEM of (n) dose response curves; read-out: Agonist IC50 ± SEM (n)
Experimental: SRIF Analogue Inhibition of GH Release. Anterior pituitaries from adult male rats were collected and dispersed by a previously described trypsin/DNase method. […] The cells were randomly plated at a density of approximately 200,000 cells/well (Costar cluster 24; Rochester Scientific Co., Rochester, N.Y.). […] In preparation for a hormone challenge, the cells were washed with medium 199 (Gibco, 3×1 mL). Each dose of a compound of this invention was tested in triplicate wells in a total volume of 1 mL medium 199 containing 1% BSA (fraction V; Sigma Chemical Co.). All wells contained GHRH(1-29)NH2 (1 nM). After incubation in an air/carbon dioxide atmosphere (95/5%, 3 h at 37° C.), the medium was removed and stored at −20° C. until assayed for hormone content. Growth hormone in media was measured by a standard double antibody RIA using components generously supplied by Dr. A. F. Parlow at the National Hormone and Pituitary Program (NHHP) Torrance, Calif. Agonist IC50's were calculated using Sigmaplot (Jandel Scientific, San Rafael, Calif.). Values are expressed as the mean IC50 (nM)±SEM from (n) separate dose-response curves.

T3 sequence (P30874 whole entry): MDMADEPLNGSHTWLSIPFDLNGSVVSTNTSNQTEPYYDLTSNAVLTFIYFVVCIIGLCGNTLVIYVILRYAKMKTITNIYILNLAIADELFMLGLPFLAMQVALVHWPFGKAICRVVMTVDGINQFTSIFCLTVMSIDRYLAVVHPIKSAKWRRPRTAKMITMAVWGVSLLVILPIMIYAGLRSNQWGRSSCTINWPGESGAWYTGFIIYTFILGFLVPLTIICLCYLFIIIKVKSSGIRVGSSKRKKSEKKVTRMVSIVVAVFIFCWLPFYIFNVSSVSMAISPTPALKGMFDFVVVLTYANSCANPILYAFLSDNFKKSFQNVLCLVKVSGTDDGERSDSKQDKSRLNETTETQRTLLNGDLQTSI
T2 sequence (P32745 whole entry): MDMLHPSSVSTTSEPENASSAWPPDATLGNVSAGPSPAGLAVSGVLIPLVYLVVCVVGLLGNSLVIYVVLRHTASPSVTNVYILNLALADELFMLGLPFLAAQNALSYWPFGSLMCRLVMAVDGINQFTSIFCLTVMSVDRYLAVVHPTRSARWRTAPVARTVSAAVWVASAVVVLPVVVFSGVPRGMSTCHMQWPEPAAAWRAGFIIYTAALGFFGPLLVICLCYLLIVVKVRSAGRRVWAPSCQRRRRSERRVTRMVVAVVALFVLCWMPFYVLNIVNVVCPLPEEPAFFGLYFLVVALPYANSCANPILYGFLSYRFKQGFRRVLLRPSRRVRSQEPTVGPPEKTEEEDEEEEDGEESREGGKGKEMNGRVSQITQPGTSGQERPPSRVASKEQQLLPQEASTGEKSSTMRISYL
T4 sequence (P35346 whole entry): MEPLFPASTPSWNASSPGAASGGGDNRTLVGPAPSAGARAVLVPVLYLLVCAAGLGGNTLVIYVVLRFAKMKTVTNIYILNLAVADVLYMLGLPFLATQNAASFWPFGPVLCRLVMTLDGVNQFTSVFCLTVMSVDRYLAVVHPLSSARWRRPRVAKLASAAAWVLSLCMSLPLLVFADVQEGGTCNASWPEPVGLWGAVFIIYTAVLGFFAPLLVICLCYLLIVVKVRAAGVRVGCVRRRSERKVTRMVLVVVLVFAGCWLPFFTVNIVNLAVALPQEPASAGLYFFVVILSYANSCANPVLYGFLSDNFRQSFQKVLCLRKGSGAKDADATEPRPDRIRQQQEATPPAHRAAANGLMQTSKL
T5 sequence (P30872 whole entry): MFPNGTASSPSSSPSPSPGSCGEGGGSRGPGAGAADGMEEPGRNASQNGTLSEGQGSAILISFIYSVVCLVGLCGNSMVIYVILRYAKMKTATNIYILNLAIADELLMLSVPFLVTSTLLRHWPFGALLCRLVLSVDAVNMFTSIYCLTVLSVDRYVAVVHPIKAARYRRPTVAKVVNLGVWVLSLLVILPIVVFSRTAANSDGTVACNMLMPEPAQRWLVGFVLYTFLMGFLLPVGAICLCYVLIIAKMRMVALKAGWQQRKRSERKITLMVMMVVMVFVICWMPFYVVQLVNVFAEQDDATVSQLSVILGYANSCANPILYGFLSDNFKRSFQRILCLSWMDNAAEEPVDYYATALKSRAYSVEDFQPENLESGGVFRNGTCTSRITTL
T1 sequence (P31391 whole entry): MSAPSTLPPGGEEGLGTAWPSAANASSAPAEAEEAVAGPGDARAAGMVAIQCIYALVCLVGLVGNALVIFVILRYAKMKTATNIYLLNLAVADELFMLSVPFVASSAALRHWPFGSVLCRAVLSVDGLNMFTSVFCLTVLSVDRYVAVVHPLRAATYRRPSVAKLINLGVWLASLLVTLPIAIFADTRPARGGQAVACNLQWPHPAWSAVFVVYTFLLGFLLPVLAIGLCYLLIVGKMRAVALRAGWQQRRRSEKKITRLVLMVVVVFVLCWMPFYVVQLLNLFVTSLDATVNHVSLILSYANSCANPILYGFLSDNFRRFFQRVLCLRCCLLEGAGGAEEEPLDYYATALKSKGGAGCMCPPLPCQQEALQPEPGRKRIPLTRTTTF

| Kd [1] [µM] | Kd [2] [µM] | Kd [3] [µM] | Kd [4] [µM] | Kd [5] [µM] | Molecule | IC50 [6] [µM] |
| --- | --- | --- | --- | --- | --- | --- |
| > 1 | 0.013 ± 0.0005 | 0.00104 ± 0.00018 | 0.0237 | 0.378 ± 0.119 | C[C@@H](O)[C@H](NC(=O)[C@@H]1CSSC[C@H](N(C)C(=O)[C@H](N)Cc2ccccc2)C(=O)N[C@@H](Cc2ccccc2)C(=O)N[C@H](Cc2c[nH]c3ccccc23)C(=O)N[C@@H](CCCCN)C(=O)N[C@@H]([C@@H](C)O)C(=O)N1)C(N)=O [Example 2, DPhe-cyclo(NMeCys-Phe-DTrp-Lys-Thr-Cys)-Thr-NH2] |  |
| > 1 |  |  | 0.00061 ± 0.00036 | 1.2 | C[C@@H](O)[C@H](NC(=O)[C@@H]1CSSC[C@H](NC(=O)[C@H](N)Cc2ccccc2)C(=O)N[C@@H](Cc2ccccc2)C(=O)N(C)[C@H](Cc2c[nH]c3ccccc23)C(=O)N[C@@H](CCCCN)C(=O)N[C@@H]([C@@H](C)O)C(=O)N1)C(N)=O [Example 4, DPhe-cyclo(Cys-Phe-NMeDTrp-Lys-Thr-Cys)-Thr-NH2] |  |
| > 1 | > 1 | > 1 | > 1 | > 1 | C[C@@H](O)[C@H](NC(=O)[C@@H]1CSSC[C@H](NC(=O)[C@H](N)Cc2ccccc2)C(=O)N[C@@H](Cc2ccccc2)C(=O)N[C@H](Cc2c[nH]c3ccccc23)C(=O)N[C@@H](CCCCN)C(=O)N(C)[C@@H]([C@@H](C)O)C(=O)N1)C(N)=O [Example 6, DPhe-cyclo(Cys-Phe-DTrp-Lys-NMeThr-Cys)-Thr-NH2] |  |
| 0.574 |  | 0.0562 ± 0.0264 | 0.0284 ± 0.0193 | 0.622 ± 0.172 | C[C@@H](O)[C@H](NC(=O)[C@@H]1CSSC[C@H](NC(=O)[C@H](N)Cc2ccccc2)C(=O)N[C@@H](Cc2ccccc2)C(=O)N[C@H](Cc2c[nH]c3ccccc23)C(=O)N[C@@H](CCCCN)C(=O)N[C@@H]([C@@H](C)O)C(=O)N1C)C(N)=O [Example 7, DPhe-cyclo(Cys-Phe-DTrp-Lys-Thr-NMeCys)-Thr-NH2] |  |
|  |  |  |  |  | C[C@H](N)C(=O)NCC(=O)N[C@H]1CSSC[C@@H](C(=O)O)NC(=O)[C@H](CO)NC(=O)[C@H]([C@@H](C)O)NC(=O)[C@H](Cc2ccccc2)NC(=O)[C@H]([C@@H](C)O)NC(=O)[C@H](CCCCN)NC(=O)[C@H](Cc2c[nH]c3ccccc23)NC(=O)[C@H](Cc2ccccc2)NC(=O)[C@H](Cc2ccccc2)NC(=O)[C@H](CC(N)=O)NC(=O)[C@H](CCCCN)NC1=O [SRIF-14] | 0.00017 ± 5.4e-05 |
|  |  |  |  |  | SRIF-28 | 0.00023 ± 5.2e-05 |

| Molecule | Kd [1] [µM] | Kd [2] [µM] | Kd [3] [µM] | Kd [4] [µM] | Kd [5] [µM] | IC50 [6] [µM] |
| --- | --- | --- | --- | --- | --- | --- |
| C[C@@H](O)[C@H](NC(=O)[C@@H]1CSSC[C@H](NC(=O)[C@@H](N)Cc2ccc(O)cc2)C(=O)N[C@@H](Cc2ccccc2)C(=O)N[C@H](Cc2c[nH]c3ccccc23)C(=O)N[C@@H](CCCCN)C(=O)N(C)[C@@H]([C@@H](C)O)C(=O)N1)C(N)=O [Example 15, Tyr-cyclo(Cys-Phe-DTrp-Lys-NMeThr-Cys)-Thr-NH2] (H-YCF[dW]K[NMeT]CT-NH2; disulfide 2-7; N-terminus assumed) | ≥ 1 | 0.44 ± 0.126 | 0.0613 ± 0.00695 | 0.09279 ± 0.0007 | 1 |  |
